Experimental data published in US6239087A, “Detergent compositions containing fragrance precursors and the fragrance precursors themselves” (The Procter & Gamble Company, priority 1998, dated 2001).

Assay: Pro-Fragrant Hydrolysis Test (hydrolysis half-life t-1/2 by UV/Vis)
Assay type: physicochemical
Settings: pH 0; 90/10 dioxane/water, 30° C.
Experimental: Hydrolysis half-life is the measurement used to determine the ease with which the pro-fragrance compound undergoes acid hydrolysis and thereby releases its fragrance component(s) upon exposure to acid conditions. […] Preferably, pro-fragrances of the invention have a half-life at pH 2 of less than 60 minutes. For granular detergents, the more reactive pro-fragrances, that is, those with half-life at pH 2 of less than one minute, are most suitable, although those having a half-life of less than 60 minutes at pH 0 are also useful. For liquid detergent applications, pro-fragrances having a half-life of less than 60 minutes at pH 0, and half-life greater than one minute at pH 2 should preferably be used.
Hydrolysis half-life is determined by UV/V is spectroscopy in a 90/10 dioxane/water system at 30° C. by following the appearance of the carbonyl absorbance. Because of the hydrophobicity of the pro-fragrance compounds of the invention, a high dioxane/water ratio is needed to ensure solubility of the pro-fragrance. The pH of the water used is achieved by using aqueous HCl. The concentration of the pro-fragrance in the dioxane/water system can be adjusted to achieve convenient, measurable absorbance changes.
All measurements are carried out using a Hewlett Packard 8452 A Diode Array Spectrophotometer using quartz 1 cm path length cuvette cells. […] The pH's are measured using an Orion 230 A standardized with pH 4 and pH 7 buffers. […]
Pro-fragrance is weighed out in a 10.00 ml volumetric flask using an analytical balance (Mettler AE 200) Precision is 1/10 mg. […] Hydrolysis time is measured, starting upon addition of the acid. […] The absorbance of the pro-fragrance solution (At) is followed at a regular series of time intervals, and the cuvette is kept in the water-bath at the above-indicated temperature between measurements. Initial absorbance (Ao) measurements are carried out using an equal concentration of pro-fragrance in a 90/10 v/v dioxane-deionized water solution, and final absorbance (Af) measurements are taken using the hydrolyzed pro-fragrance solution after the hydrolysis is complete. The wavelength at which the hydrolysis is followed is chosen at the wavelength of the absorbance maximum of the parent aldehyde or ketone.
Reaction half-lifes are determined using conventional procedures. The observed first-order rate constant (kobs) is determined by slope of the line provided by plotting the following finction vs time (min):
wherein said function is the natural log of the ratio between the absorbance difference at initial time (Ao) and final time (Af) over the absorbance difference at time t (At) and final time (Af). […]

t1/2 (hydrolysis half-life) | Compound
less than one | CC(C)=CCCC(C)=CC(OC/C=C(\C)CCC=C(C)C)OC/C=C(\C)CCC=C(C)C [Example 2, Digeranyl Citral Acetal]
less than one | CCCCCCCCCCOC(C)(CCc1ccccc1)OCCCCCCCCCC [Example 3, Didecyl Benzyl Acetone Ketal]
less than 1 minutes | CCCCCCCCCCOC(OCCCCCCCCCC)c1ccc(OC)cc1 [Example 1, Didecyl Anisaldehyde Acetal]

Compound | t1/2 (hydrolysis half-life)
CCCCCCCCCC(OC/C=C(\C)CCC=C(C)C)OC/C=C(\C)CCC=C(C)C [Example 4, Digeranyl Decanal Acetal] | 44 min
